Data taken from article PMC6628712 (Journal of enzyme inhibition and medicinal chemistry, 2016).

Columns and labels:
[1] = biological target: T1, CYP2C8 (Homo sapiens, UniProt P10632); test: Spectral binding determination, CYP2C8; conditions: UV-difference spectra
T1 sequence (P10632 1-490): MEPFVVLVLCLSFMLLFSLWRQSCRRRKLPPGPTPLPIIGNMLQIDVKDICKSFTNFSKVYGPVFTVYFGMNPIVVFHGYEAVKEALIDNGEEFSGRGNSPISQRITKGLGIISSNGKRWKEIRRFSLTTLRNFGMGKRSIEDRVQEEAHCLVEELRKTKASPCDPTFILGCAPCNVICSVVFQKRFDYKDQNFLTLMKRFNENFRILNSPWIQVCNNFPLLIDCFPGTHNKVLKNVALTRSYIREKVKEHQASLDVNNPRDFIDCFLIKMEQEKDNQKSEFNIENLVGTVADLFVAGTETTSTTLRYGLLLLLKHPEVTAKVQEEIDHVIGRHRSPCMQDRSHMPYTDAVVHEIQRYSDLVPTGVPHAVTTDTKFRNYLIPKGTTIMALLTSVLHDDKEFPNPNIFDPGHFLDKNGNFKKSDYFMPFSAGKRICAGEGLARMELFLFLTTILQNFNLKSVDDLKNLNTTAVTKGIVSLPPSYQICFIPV

[2] = biological target: T2, CYP26A1 (Homo sapiens, UniProt O43174); test: Spectral binding determination, CYP26A1
T2 sequence (O43174 1-497): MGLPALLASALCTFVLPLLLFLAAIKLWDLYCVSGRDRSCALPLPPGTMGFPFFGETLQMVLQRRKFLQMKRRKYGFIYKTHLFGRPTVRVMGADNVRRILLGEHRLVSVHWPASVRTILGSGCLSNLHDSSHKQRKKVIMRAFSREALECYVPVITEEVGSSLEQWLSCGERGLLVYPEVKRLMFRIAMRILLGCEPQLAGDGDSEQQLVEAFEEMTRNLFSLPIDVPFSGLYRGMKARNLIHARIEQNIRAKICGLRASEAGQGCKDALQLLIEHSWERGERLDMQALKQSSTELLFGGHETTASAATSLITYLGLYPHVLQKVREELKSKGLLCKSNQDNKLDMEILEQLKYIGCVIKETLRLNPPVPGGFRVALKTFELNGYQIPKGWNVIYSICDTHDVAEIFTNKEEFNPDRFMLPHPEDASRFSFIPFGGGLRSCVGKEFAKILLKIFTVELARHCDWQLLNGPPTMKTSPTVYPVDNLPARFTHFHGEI

[3] = biological target: T2, CYP26A1; test: Inhibition of CYP26A1-catalyzed tazarotenic acid sulfoxide formation; format: biochemical
[4] = tested on: CYP2C8; test: In vitro free fraction by rapid equilibrium dialysis; format: in vitro ADME; conditions: human, pH 7.4, fu (IC50 assay), CYP2C8, conditions of CYP2C8 IC50 assay
[5] = following topical administration; ref [64]–[73]; cited from earlier work
[6] = biological target: T3, CYP26B1 (Homo sapiens, UniProt Q9NR63); test: Spectral binding determination, CYP26B1
T3 sequence (Q9NR63 1-512): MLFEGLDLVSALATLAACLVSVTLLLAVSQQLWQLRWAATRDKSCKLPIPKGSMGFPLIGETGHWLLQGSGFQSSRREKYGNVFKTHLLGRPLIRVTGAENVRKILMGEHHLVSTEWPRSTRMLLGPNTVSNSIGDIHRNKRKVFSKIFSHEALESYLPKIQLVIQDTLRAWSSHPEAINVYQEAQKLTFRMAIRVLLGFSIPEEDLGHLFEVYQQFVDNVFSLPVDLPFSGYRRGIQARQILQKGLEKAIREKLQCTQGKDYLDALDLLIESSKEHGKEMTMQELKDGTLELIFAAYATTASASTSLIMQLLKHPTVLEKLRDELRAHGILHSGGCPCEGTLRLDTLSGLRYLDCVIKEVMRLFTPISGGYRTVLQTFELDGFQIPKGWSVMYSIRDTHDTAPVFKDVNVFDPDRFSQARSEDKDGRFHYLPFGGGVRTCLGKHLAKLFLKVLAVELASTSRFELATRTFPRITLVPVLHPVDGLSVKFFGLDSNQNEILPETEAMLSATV

[7] = human, in vivo
[8] = unbound fraction in plasma; ref [64]–[73]; cited from earlier work
[9] = tested on: CYP26A1; conditions: in vitro; ref [97]; cited from earlier work
[10] = biological target: T3, CYP26B1; test: Inhibition of CYP26B1-catalyzed tazarotenic acid sulfoxide formation; format: biochemical

Binding mechanism, CYP2C8 [1]: Type II
Kd ([2]; Ks (spectral binding constant), CYP26A1, 500 nM protein, ± standard error): 533 ± 71.8 nM
Kd ([2]; Ks,unb CYP26A1, Ks corrected for nonspecific binding): 13.3 nM
Binding mechanism, CYP26A1 ([2]; UV-difference spectra): Type II
IC50 ([3]; CYP26A1 IC50, probe tazarotenic acid): 24.7 ± 8.1 nM
IC50 ([3]; CYP26A1 IC50, tazarotenic acid, recombinant CYP26A1, probe tazarotenic acid sulfoxide formation, ± standard error): 20 ± 10 nM
IC50 ([3]; IC50,unb CYP26A1, IC50 corrected for unbound fraction in the assay): 16.3 nM
fraction unbound at 12 h, 1 μM [4]: 0.155 ± 0.024
Kd ([6]; Ks (spectral binding constant), CYP26B1, 500 nM protein, ± standard error): 4950 ± 640 nM
Kd ([6]; Ks,unb CYP26B1, Ks corrected for nonspecific binding): 24.7 nM
Binding mechanism, CYP26B1 ([6]; UV-difference spectra): Type II
Cmax,u (skin) [7]: 6.73 µM
IC50 ([10]; CYP26B1 IC50, probe tazarotenic acid): 50.1 ± 12.1 nM
IC50 ([10]; CYP26B1 IC50, tazarotenic acid, recombinant CYP26B1, probe tazarotenic acid sulfoxide formation, ± standard error): 50 ± 10 nM
IC50 ([10]; IC50,unb CYP26B1, IC50 corrected for unbound fraction in the assay): 21.5 nM
Compound: Clc1ccccc1C(c1ccccc1)(c1ccccc1)n1ccnc1 [Clotrimazole]
Total skin concentration [5]: 67.3 µM
fu,plasma [8]: 0.100
Inhibition of CYP26A1-catalyzed 4-hydroxyretinoic acid formation [9]: not be inhibitors
